The values that follow come from publication PMC10721898, “C5 methylation confers accessibility, stability and selectivity to picrotoxinin” (Nature Communications, 2023).

pIC50: −log10 of the molar value. Where two headings read alike, the source gives them in different places.

A word on the pIC50: it is the negative decadic logarithm of the IC50, by convention in mol/L.

The target in test [1] is rat GABAA ion channel. The test is described as follows: Non-selective rat GABAA ion channel [3H]TBOB binding (antagonist radioligand) assay, rat cerebral cortex. The conditions noted are these: [3H]TBOB displacement, n = 1. On the procedure:
The structurally privileged 5-methyl series was assayed for binding to both GABAA receptors (rat cortex membrane preparations) and RDL (expressed in Xenopus oocytes) and compared directly to the parent PXN (C5-H) series. The parallel series of PXN and 5MePXN analogs allowed us to interrogate the effect of the synthetically-enabling and stabilizing C5 methyl. […]
4. Rat GABAA receptors binding assay
Non-selective rat GABAA ion channel [3H] TBOB binding (Antagonist Radioligand) assay was conducted by Eurofins Pharma Discovery Service of Eurofins Cerep, France.
Compound binding was calculated as a % inhibition of the binding of the radioactive ly labeled ligand [3H] TBOB (t‐[3H]Butylbicycloorthobenzoate) for rat GABAA ion channels.9 A 20.0 mM stock solution was prepared in DMSO from each test compound to evaluate radioligand displacement of [3H] TBOB from rat cerebral cortex GABAA receptors at different concentrations.
The results are expressed as a percent of control specific binding measured specific binding*100 […]
and as a percent inhibition of control specific binding
100 − (measured specific binding*100) […]
obtained in the presence of the test compounds.
The IC50 values (concentration causing a half -maximal inhibition of control specific binding) and Hill coefficients (nH) were determined by non -linear regression analysis of th e competition curves generated with mean replicate values using Hill equation curve fitting […]
where Y = specific binding, A = left asymptote of the curve, D = right asymptote of the curve , C = compound concentration, C 50 = IC50, and nH = slope factor. This analysis was performed using software developed at Cerep (Hill software) and validated by comparison with data generated by th e commercial software SigmaPlot® 4.0 for Windows ® (© 1997 by SPSS Inc.).
The inhibition constants (K i) were calculated using the Cheng Prusoff equation where L = concentration of radioligand in the assay, and KD = affinity of the radioligand for the recept or. A scatchard plot is used to determine the K D.
Supplementary Table 8. IC50 values of test compound
(§1) Compound IC50 (µM) Compound IC50 (µΜ)

For test [2], the target named is T1, Drosophila RDL (Drosophila melanogaster, UniProt P25123).
T1 construct: expressed in transfected cells; host or cells: Xenopus oocytes (Ecocyte, Austin, TX) microinjected with capped cRNA
T1 sequence (P25123 45-606): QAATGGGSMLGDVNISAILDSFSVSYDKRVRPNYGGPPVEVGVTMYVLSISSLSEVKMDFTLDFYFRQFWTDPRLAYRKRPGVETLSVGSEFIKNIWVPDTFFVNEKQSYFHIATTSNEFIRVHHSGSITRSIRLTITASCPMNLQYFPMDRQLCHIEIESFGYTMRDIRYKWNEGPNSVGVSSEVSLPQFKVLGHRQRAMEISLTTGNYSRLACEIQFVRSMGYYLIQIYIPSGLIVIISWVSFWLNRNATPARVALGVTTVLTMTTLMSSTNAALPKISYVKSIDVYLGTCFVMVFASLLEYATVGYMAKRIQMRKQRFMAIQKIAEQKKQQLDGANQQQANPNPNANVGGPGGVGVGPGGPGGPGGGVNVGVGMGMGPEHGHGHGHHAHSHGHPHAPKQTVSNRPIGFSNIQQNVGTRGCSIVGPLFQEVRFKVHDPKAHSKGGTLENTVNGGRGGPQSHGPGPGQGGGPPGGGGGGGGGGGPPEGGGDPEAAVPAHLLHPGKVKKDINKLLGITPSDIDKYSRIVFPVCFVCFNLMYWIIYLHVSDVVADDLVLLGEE
The test is described as follows: RDL receptors assay: two-electrode voltage clamp electrophysiology in Xenopus oocytes. It is filed as cell-based. The protocol:
5. RDL receptors binding assay
The Drosophila RDL sequence (NP_01261616.1) was cloned into the pGH19 backbone via Gibson assembly for capped cRNA synthesis using the T7 mMessage mMachine kit (Invitrogen). cRNA samples were stored at - 80 °C until use. Ready to inject Xenopus oocytes were obtained from Ecocyte (Austin, TX) and microinjected using a Nanoinject III (Drummond Scientific) with 4 nL of cRNA (1 μg/μL). The oocytes were then incubated at 16 °C in ND96 storage solution (93.5 mM NaCl, 2 mM KCl, 1.8 mM CaCl 2·2H2O, 2 mM MgCl 2·6H2O, 5 mM HEPES at pH 7.5). Recording were made 1 -6 days post injection.
Electrophysiology experiments were performed using an automated two -electrode voltage clamp set -up (Roboocyte 2, Mutlichannel Systems). Recording head were filled with 3M KCl and gave resistan ce of 100-2000 kΩ in medium. Membrane potential was held at -60 mV and current signal was sampled at 20 kHz.
Experiments were performed at room temperature using Modified Barth’s Saline (MBS) (88 mM NaCl, 1 mM KCl, 2.4 mM NaHCO 3, 15 mM HEPES, 0.3 mM Ca(NO3)2, 0.41 mM CaCl 2, and 0.82 mM MgSO 4·7H2O at pH 7.4). Oocytes were perfused with MBS at 5 mL/min in all assays. GABA and all compounds were dissolved in MBS and a 0.1% DMSO negative control was utilized to correct for any solvent effect.
Initial block potential of each compound was assessed utilizing a pre -incubation method (MBS (30 sec), 10 μM GABA (15 sec), MBS wash (60 sec), compound (60 sec), compound + 10 μM GABA (15 sec), compound (60 sec), compound + 10 μM GABA (15 sec), MBS wash (60 sec) with 10 μM of each test compound. The maximum signal of the second co -application was compared to the initial GABA response to determine the % block and then standardized against the corresponding value of the 0.1% DMSO control. Dose responses were performed for any compound showing >50% block in the initial test using 10, 1, and 0.1 μM. The IC50 values were fit using an inhibitor vs response 4 -parameter fit (GraphPad Prism 8.1.2).
Supplementary Table 9. IC50 values of test compound
as §1
(Two-electrode voltage clamp is typically applied to oocytes expressing channels or transporters.)

The subject of test [3] is GABAA and RDL receptors. More on the design: method as in PMID 8982503. The conditions noted are these: cited from earlier work.
Test [4] deals with RDL. The conditions noted are these: cited from earlier work.
Where [5] appears, read: Supplementary Table 8 (5MePXN series).
Where [6] appears, read: block of 10 μM GABA response, pre-incubation, -60 mV, Supplementary Table 9 (5MePXN series), n = 4, read-out: IC50.
Setting [7] is: Supplementary Table 8 (PXN series).
Setting [8] is: block of 10 μM GABA response, pre-incubation, -60 mV, Supplementary Table 9 (PXN series), n = 4, read-out: IC50.

`CC1(C2C3OC(=O)C2(C)C2(O)CC4OC45C(=O)OC3C52C)CC1` (stereo not shown) [Cyp5MePXN]: the pIC50 was 5.11 in test [1] (setting [5]) and 5.79 in test [2] (setting [6]).

With `CC(C)(O)C1C2OC(=O)C1(C)C1(F)CC3OC34C(=O)OC2C41C` (stereo not shown) [6F5MePTN], the pIC50 in test [1] (setting [5]) was less than 3.70; in test [2] (setting [6]), 5.81.

For `CC(C)C1C2OC(=O)C1(C)C1(F)CC3OC34C(=O)OC2C41C` (stereo not shown) [6FH5MePXN], the values for the pIC50 in test [1] (setting [5]) and in test [2] (setting [6]) were 4.28 and 5.56, respectively.

`CC(C)(F)C1C2OC(=O)C1C1(F)CC3OC34C(=O)OC2C14C` (stereo not shown) [6F12FPXN]: the results for the pIC50 in test [1] (setting [7]) and in test [2] (setting [8]) were 4.49 and 5.65, respectively.

Consider `CC(C)(C)C1C2OC(=O)C1C1(O)CC3OC34C(=O)OC2C14C` (stereo not shown) [12MePXN], for which the pIC50 in test [1] (setting [7]) is 6.51; in test [2] (setting [8]), 6.17.

Turning to `C=C(C)C1C2OC(=O)C1(C)C1(O)CC=C3C(=O)OC2C31C` (stereo not shown) [8,9do5MePXN], the negative logarithm of the IC50 (pIC50) in test [1] (setting [5]) was 5.04; in test [2] (setting [6]) it was 5.36.

For the molecule `CC(C)(F)C1C2OC(=O)C1(C)C1(O)CC3OC34C(=O)OC2C41C` (stereo not shown) [12F5MePXN], the negative-log IC50 (pIC50) in test [1] (setting [5]) was 4.00; in test [2] (setting [6]), less than 5.00.

As to picrodendrin O, the “selectivity index over GABAA” value in test [3] is listed as 76 fold.

On to `C=C(C)C1C2OC(=O)C1C1(F)CC3OC34C(=O)OC2C14C` (stereo not shown) [6FPXN], for which the negative-log IC50 (pIC50) is 6.37 in test [1] (setting [7]) and 5.98 in test [2] (setting [8]). In addition, in test [4], the “reported activity at RDL” value is listed as “lose channel blocking ability”.

For `CC(C)(C)C1C2OC(=O)C1(C)C1(O)CC3OC34C(=O)OC2C41C` (stereo not shown) [12Me5MePXN], the negative logarithm of the IC50 (pIC50) in test [1] (setting [5]) is 5.13; in test [2] (setting [6]) it was 5.54.

In the case of `CC(C)(O)C1C2OC(=O)C1C1(F)CC3OC34C(=O)OC2C14C` (stereo not shown) [6FPTN], the negative-log IC50 (pIC50) in test [1] (setting [7]) was 4.25; in test [2] (setting [8]), 5.31.

On to `CC(C)C1C2OC(=O)C1(C)C1(O)CC3OC34C(=O)OC2C41C` (stereo not shown) [H5MePXN], for which the values for the negative-log IC50 (pIC50) in test [1] (setting [5]) and in test [2] (setting [6]) were 4.64 and less than 5.00, respectively.

On to `CC(C)C1C2OC(=O)C1C1(O)CC3OC34C(=O)OC2C14C` (stereo not shown) [HPXN], for which the results for the pIC50 in test [1] (setting [7]) and in test [2] were 6.00 and 5.97, respectively.

For `CC(C)(O)C1C2OC(=O)C1(C)C1(O)CC3OC34C(=O)OC2C41C` (stereo not shown) [5MePTN], the results for the negative-log IC50 (pIC50) in test [1] (setting [5]) and in test [2] (setting [6]) were less than 3.70 and less than 5.00, respectively.

In the case of `C=C(C)C1C2OC(=O)C1(C)C1(F)CC3OC34C(=O)OC2C41C` (stereo not shown) [6F5MePXN], the negative logarithm of the IC50 (pIC50) in test [1] (setting [5]) is 4.85; in test [2] (setting [6]) it was 6.23.

On to `CC(C)(O)[C@@H]1[C@H]2OC(=O)[C@@H]1[C@]1(O)C[C@H]3O[C@]34C(=O)O[C@H]2[C@]14C` [PTN, picrotin, reference compound], for which the pIC50 in test [1] (setting [7]) is 4.27; in test [2], 6.08. The “reported activity at RDL” value in test [4] is “inactivity”.

In the case of `CC(C)C1C2OC(=O)C1C1(F)CC3OC34C(=O)OC2C14C` (stereo not shown) [6FHPXN], the values for the negative logarithm of the IC50 (pIC50) in test [1] (setting [7]) and in test [2] (setting [8]) were 5.19 and 6.25, respectively.

On to `CC(C)(F)C1C2OC(=O)C1(C)C1(F)CC3OC34C(=O)OC2C41C` (stereo not shown) [6F12F5MePXN], for which the negative-log IC50 (pIC50) was less than 3.70 in test [1] (setting [5]) and 6.00 in test [2] (setting [6]).

On to `CC(C)(F)C1C2OC(=O)C1C1(O)CC3OC34C(=O)OC2C14C` (stereo not shown) [12FPXN], for which the pIC50 in test [1] (setting [7]) was 5.27; in test [2] (setting [8]), less than 5.00.

With `CC1(C2C3OC(=O)C2C2(O)CC4OC45C(=O)OC3C25C)CC1` (stereo not shown) [CypPXN], the negative logarithm of the IC50 (pIC50) in test [1] (setting [7]) was 6.41; in test [2], 6.16.

For `C=C(C)C1C2OC(=O)C1C1(O)CC=C3C(=O)OC2C31C` (stereo not shown) [8,9doPXN], the negative-log IC50 (pIC50) in test [1] (setting [7]) is 6.26; in test [2] (setting [8]), 5.58.
